Test results from US11286268B1, “EIF4E-inhibiting compounds and methods” (EFFECTOR THERAPEUTICS, INC., priority 2019, dated 2022).
Read-outs that look alike come from different tables or passages of the source.

Biological target: recombinant eIF4E (Homo sapiens (Human), UniProt P06730)
Experiment: Fluorescence polarization competition assay for eIF4E binding potency
Outline: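 Protein and fluorescent cap-analog probe (EDA-m7GDP-ATTO-550) were mixed first for 5 min, after which serially diluted compound was added to final 75 nM eIF4E, 20 nM probe, 1% DMSO. Reactions equilibrated 30 min at room temperature before polarization was measured.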

[1] = fluorescence polarization competition, 75 nM recombinant eIF4E, 20 nM EDA-m7GDP-ATTO-550, IC50 class, read-out: elF4E FP
[2] = inhibition of eIF4E/EDA-m7GDP-ATTO-550 binding by 50%, Table 4B calculated values, read-out: IC50

recombinant eIF4E, sequence (P06730 whole entry): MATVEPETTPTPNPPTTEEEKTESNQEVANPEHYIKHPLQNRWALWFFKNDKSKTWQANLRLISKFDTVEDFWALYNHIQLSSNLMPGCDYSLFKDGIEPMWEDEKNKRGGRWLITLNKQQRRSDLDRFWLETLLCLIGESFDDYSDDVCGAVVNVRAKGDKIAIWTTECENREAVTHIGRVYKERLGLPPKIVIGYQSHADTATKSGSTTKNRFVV

Row | Structure (SMILES) | IC50 [1] [nM] | IC50 [2] [nM]
1 | Cc1nc2cnc(OC3CCN(CC(F)(F)F)CC3)c(C#N)c2c(=O)n1CCOc1ccc(Cl)cc1-c1ccnc2c(C(=O)O)csc12 [compound 820] | < 50 | 13.6
2 | Cc1nc2cnc(S(=O)(=O)N3CCN(C)CC3)c(C#N)c2c(=O)n1CCOc1ccc(Cl)cc1-c1ccnc2c(C(=O)O)csc12 [compound 821] | < 50 | 14.2
3 | Cc1nc2cnc(N3CC4(C3)CN(C3CC3)C4)c(C#N)c2c(=O)n1CC#Cc1ccc(Cl)cc1-c1ccnc2c(C(=O)O)csc12 [compound 822] | < 50 | 10.7
4 | Cc1nc2cnc(N3CC4(C3)CN(C(C)(C)C(F)F)C4)c(C#N)c2c(=O)n1CCOc1ccc(Cl)cc1-c1ccnc2c(C(=O)O)csc12 [compound 823] | < 50 | 11.5
5 | Cc1nc2cnc(N3CCN(CC(F)F)C4CC43)c(C#N)c2c(=O)n1CCOc1ccc(Cl)cc1-c1ccnc2c(C(=O)O)csc12 (centres unmarked) [compound 824] | < 50 | 13.6
6 | Cc1nc2cnc(N3CC4(C3)CN(C3(CF)CC3)C4)c(C#N)c2c(=O)n1CCOc1ccc(Cl)cc1-c1ccnc2c(C(=O)O)csc12 [compound 825] | < 50 | 14.3
7 | Cc1nc2cnc(N(C)C3CC4(C3)CN(CC(F)(F)F)C4)c(C#N)c2c(=O)n1CC#Cc1ccc(Cl)cc1-c1ccnc2c(C(=O)O)csc12 [compound 827] | < 50 | 5.72
8 | Cc1nc2cnc(N(C)C3CC4(C3)CN(C(C)(C)CF)C4)c(C#N)c2c(=O)n1CC#Cc1ccc(Cl)cc1-c1ccnc2c(C(=O)O)csc12 [compound 828] | < 50 | 5.72
9 | Cc1nc2cnc(N3CC4(CC(N(C)C5CC5)C4)C3)c(C#N)c2c(=O)n1CCOc1ccc(Cl)cc1-c1ccnc2c(C(=O)O)csc12 [compound 829] | < 50 | 4.53
10 | Cc1nc2cnc(N3CC4(CC(N(C)C5CC5)C4)C3)c(C#N)c2c(=O)n1CC#Cc1ccc(Cl)cc1-c1ccnc2c(C(=O)O)csc12 [compound 830] | < 50 | 12.8
11 | Cc1cc(-c2cc(Cl)ccc2OCCn2c(C)nc3cnc(C4(C)CC4)c(C#N)c3c2=O)c2scc(C(=O)O)c2n1 [compound 831] | < 50 | 12.3
12 | Cc1nc2cc(C(F)(F)F)c(N3CCN(C)CC3)c(C#N)c2c(=O)n1CCOc1ccc(Cl)cc1-c1ccccc1 [compound 833] | 50 to 1000 | 111
13 | Cc1nc2cc(C(F)(F)F)c(N3CCN(C)CC3)c(C#N)c2c(=O)n1CCOc1ccc(Cl)cc1-c1ccnc2c(C(=O)O)csc12 [compound 834] | < 50 | 31.6
14 | Cc1cc(-c2cc(Cl)ccc2OCCn2c(C)nc3cc(C(F)(F)F)c(N4CCN(C)CC4)c(C#N)c3c2=O)cc(C)n1 [compound 835] | < 50 | 29.3
15 | Cc1cc(-c2cc(Cl)ccc2OCCn2c(C)nc3cc(C(F)(F)F)c(N4CCN(C)CC4)c(C#N)c3c2=O)c2sccc2n1 [compound 836] | < 50 | 2.33
16 | Cc1nc2c(N3CCNCC(F)(F)C3)ncc(C#N)c2c(=O)n1CCOc1ccc(Cl)cc1-c1ccnc2c(C(=O)O)csc12 [compound 837] | < 50 | 13.4
17 | Cc1nc2c(N3CCN(C)CC(F)(F)C3)ncc(C#N)c2c(=O)n1CCOc1ccc(Cl)cc1-c1ccnc2c(C(=O)O)csc12 [compound 838] | < 50 | 38.7
18 | Cc1cc(-c2cc(Cl)ccc2OCCn2c(C)nc3cnc(C4(C(F)(F)F)CC4)c(C#N)c3c2=O)c2scc(C(=O)O)c2n1 [compound 839] | < 50 | 29.6
19 | Cc1nc2cnc(N3CC4(CN(CC(F)(F)F)C4)C3)c(C#N)c2c(=O)n1CCOc1ccc(Cl)cc1-c1ccnc2c(C(=O)O)csc12 [compound 840] | < 50 | 10.4
20 | Cc1nc2cncc(OCCN(C)C)c2c(=O)n1CCOc1ccc(Cl)cc1-c1ccnc2c(C(=O)O)csc12 [compound 841] | 50 to 1000 | > 1000
21 | Cc1nc2cnc(N3CCN(C)CC3)c(C#N)c2c(=O)n1CC#Cc1ccc(Cl)cc1-c1ccnc2c(C(=O)O)csc12 [compound 842] | < 50 | 20.9
22 | Cc1nc2c(N3CCN(CCCC(F)(F)F)CC3)ncc(C#N)c2c(=O)n1CCOc1ccc(Cl)cc1-c1ccnc2c(C(=O)O)csc12 [compound 843] | < 50 | 13.1
23 | Cc1nc2cnc(N3CCN(CCCC(F)(F)F)CC3)c(C#N)c2c(=O)n1CCOc1ccc(Cl)cc1-c1ccnc2c(C(=O)O)csc12 [compound 844] | < 50 | 23.3
24 | Cc1nc2cnc(N3CCN(C(C)(C)CC(F)(F)F)CC3)c(C#N)c2c(=O)n1CCOc1ccc(Cl)cc1-c1ccnc2c(C(=O)O)csc12 [compound 845] | < 50 | 12.7
25 | Cc1cc(-c2cc(Cl)ccc2OCCn2c(C)nc3cnc(OC4CN(C)C4)c(C#N)c3c2=O)c2sc(C)c(C(=O)O)c2n1 [compound 846] | < 50 | 37.9

Row | Structure (SMILES) | IC50 [1] [nM] | IC50 [2] [nM]
26 | Cc1ncc(F)cc1-c1c(C(F)(F)F)cc2nc(C)n(CCOc3ccc(Cl)cc3-c3ccnc4c(C(=O)O)csc34)c(=O)c2c1C#N [compound 847] | < 50 | 44
27 | Cc1cc(-c2cc(Cl)ccc2OCCn2c(C)nc3cnc(N(C)C4CCN(C)CC4)c(C#N)c3c2=O)c2sc(C)c(C(=O)O)c2n1 [compound 848] | < 50 | 26.9
28 | Cc1cc(-c2cc(Cl)ccc2OCCn2c(C)nc3nc(C(F)(F)F)c(N4CCN(C)CC4)cc3c2=O)c2scc(C(=O)O)c2n1 [compound 849] | < 50 | 14.5
29 | CCc1nc(C)c2nc(C)n(CCOc3ccc(Cl)cc3-c3cc(C)nc4c(C(=O)O)csc34)c(=O)c2c1C#N [compound 850] | < 50 | 17.7
30 | CCc1nc(C)c2nc(C)n(CCOc3ccc(Cl)cc3-c3ccnc4c(C(=O)O)csc34)c(=O)c2c1C#N [compound 851] | < 50 | 6.02
31 | Cc1nc2cc(C(F)(F)F)c(N3CCN(CCO)CC3)c(C#N)c2c(=O)n1CCOc1ccc(Cl)cc1-c1ccnc2ccsc12 [compound 852] | < 50 | 21.4
32 | Cc1nc2cc(C(F)(F)F)c(OCCN3CCNCC3)c(C#N)c2c(=O)n1CCOc1ccc(Cl)cc1-c1ccnc2ccsc12 [compound 853] | < 50 | 31.9
33 | Cc1nc2cnc(N(C)C3CCN(C)CC3)c(C#N)c2c(=O)n1CCOc1ccc(Cl)cc1-c1ccnc2c(C(=O)O)csc12 [compound 854] | < 50 | 11.9
34 | Cc1nc2cc(C(F)(F)F)c(N3CCNCC3)c(C#N)c2c(=O)n1CCOc1ccc(Cl)cc1-c1ccnc2ccsc12 [compound 855] | < 50 | 4.77
35 | Cc1cc(-c2cc(Cl)ccc2C#CCn2c(C)nc3cc(C(F)(F)F)c(N4CCN(CCO)CC4)c(C#N)c3c2=O)c2scc(C(=O)O)c2n1 [compound 856] | < 50 | 13.7
36 | Cc1nc2c(N3C4CCC3CN(C)C4)ncc(C#N)c2c(=O)n1CCOc1ccc(Cl)cc1-c1ccnc2c(C(=O)O)csc12 [compound 857] | < 50 | 4.62
37 | Cc1nc2cc(C(F)(F)F)c(CCN(C)C)cc2c(=O)n1CCOc1ccc(Cl)cc1-c1ccnc2c(C(=O)O)csc12 [compound 858] | < 50 | 7.28
38 | Cc1nc2cc(C(F)(F)F)c(N3CCN(CCO)CC3)c(C#N)c2c(=O)n1CC#Cc1ccc(Cl)cc1-c1ccnc2c(C(=O)O)csc12 [compound 859] | < 50 | 5.59
39 | Cc1nc2cnc(N3CCN(CC(F)(F)F)CC3)c(C#N)c2c(=O)n1CC#Cc1ccc(Cl)cc1-c1ccnc2c(C(=O)O)csc12 [compound 860] | < 50 | 10.3
40 | Cc1nc2c(N(C)C3CCN(CC(F)(F)F)CC3)ncc(C#N)c2c(=O)n1CCOc1ccc(Cl)cc1-c1ccnc2c(C(=O)O)csc12 [compound 861] | < 50 | 24.6
41 | Cc1nc2c(N(C)C3CCN(C)CC3F)ncc(C#N)c2c(=O)n1CCOc1ccc(Cl)cc1-c1ccnc2c(C(=O)O)csc12 (centres unmarked) [compound 862] | < 50 | 20.9
42 | Cc1nc2c(N(C)C3CC4CCC(C3)N4C)ncc(C#N)c2c(=O)n1CCOc1ccc(Cl)cc1-c1ccnc2c(C(=O)O)csc12 (centres unmarked) [compound 863] | < 50 | 45.5
43 | Cc1nc2c(N(C)C3CCN(C)C(C(F)F)C3)ncc(C#N)c2c(=O)n1CCOc1ccc(Cl)cc1-c1ccnc2c(C(=O)O)csc12 (centres unmarked) [compound 864] | < 50 | 47.9
44 | Cc1nc2cnc(N(C)C3CCN(CC(F)(F)F)CC3)c(C#N)c2c(=O)n1CCOc1ccc(Cl)cc1-c1ccnc2c(C(=O)O)csc12 [compound 865] | < 50 | 28.4
45 | Cc1nc2cnc(N(C)C3CCN(C)C(C(F)F)C3)c(C#N)c2c(=O)n1CCOc1ccc(Cl)cc1-c1ccnc2c(C(=O)O)csc12 (centres unmarked) [compound 866] | < 50 | 16.8
46 | Cc1cc(-c2cc(Cl)ccc2OCCn2c(C)nc3cc(C(F)(F)F)c(N4CCS(=O)(=O)CC4)c(C#N)c3c2=O)c2scc(C(=O)O)c2n1 [compound 867] | < 50 | 6.61
47 | Cc1cc(-c2cc(Cl)ccc2OCCn2c(C)nc3cnc(N4CC5CCC(C4)N5C)c(C#N)c3c2=O)c2sc(C)c(C(=O)O)c2n1 [compound 868] | < 50 | 17.2
48 | Cc1cc(-c2cc(Cl)ccc2OCCn2c(C)nc3cnc(OC4CNC4)c(C#N)c3c2=O)c2sc(C)c(C(=O)O)c2n1 [compound 869] | < 50 | 25.4
49 | Cc1cc(-c2cc(Cl)ccc2OCCn2c(C)nc3c(C)nc(-c4c(C)cccc4F)c(C#N)c3c2=O)c2scc(C(=O)O)c2n1 [compound 871] | < 50 | 
50 | Cc1cc(-c2cc(Cl)ccc2OCCn2c(C)nc3c(C)nc(-c4c(C)cccc4C)c(C#N)c3c2=O)c2scc(C(=O)O)c2n1 [compound 872] | < 50 | 
